Tests used:
mOct1 = molecular target: T1, mOct1 (Mus musculus, UniProt O08966); experiment: Two-point inhibition of mOct1-mediated MPP uptake in transfected HEK293 cells; assay type: in vitro ADME; details: 1 and 10 μM; MPP 10 μM, 1 min
T1 construct: expressed in transfected cells; host or cells: HEK293
T1 sequence (O08966 1-556): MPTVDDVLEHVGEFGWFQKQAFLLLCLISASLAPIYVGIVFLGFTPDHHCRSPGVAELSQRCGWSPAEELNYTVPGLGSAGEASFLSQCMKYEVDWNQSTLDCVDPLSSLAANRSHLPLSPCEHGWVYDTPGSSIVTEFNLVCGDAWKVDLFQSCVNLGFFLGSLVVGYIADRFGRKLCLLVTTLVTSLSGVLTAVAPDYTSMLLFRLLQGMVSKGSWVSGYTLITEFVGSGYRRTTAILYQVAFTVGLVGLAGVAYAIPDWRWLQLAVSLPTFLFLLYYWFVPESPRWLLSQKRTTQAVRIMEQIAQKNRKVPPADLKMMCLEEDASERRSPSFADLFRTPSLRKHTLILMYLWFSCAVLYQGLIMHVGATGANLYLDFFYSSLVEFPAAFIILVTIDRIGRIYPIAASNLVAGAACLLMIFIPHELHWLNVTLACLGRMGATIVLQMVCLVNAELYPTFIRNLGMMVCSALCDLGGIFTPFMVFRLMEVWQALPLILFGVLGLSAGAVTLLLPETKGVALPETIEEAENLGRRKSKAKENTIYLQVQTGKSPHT
Protocol: (§1) Well-characterized mOct1-, mOct2-, mOat1-, mOat2-, mOat3-, mMate1-, hOAT1-, hOAT3-, hOAT4-, hMRP2-, mMdr1a- and mMdr1b-transfected HEK293 cells and the respective vector-transfected control HEK293 cells were used.[42],[51],[52] All HEK293 cells (transporter-transfected and vector-transfected) were cultured in DMEM (Sigma, high glucose, 10% FBS, 1% penicillin (10,000 Units/mL)/streptomycin (10 mg/mL)) at 37°C under 5% CO2 in humidified atmosphere. The cells were routinely checked for the absence of mycoplasma infection. For the preparation of HEK293 cell monolayers, 24-well plates were pretreated with a poly-D-lysine hydrobromide solution (0.1 mg/mL). […]
(§2) For the uptake assay, the growth medium was aspirated, and each well was rinsed three times with 0.5 mL of incubation buffer (HBSS supplemented with 20 mM HEPES, pH 7.4) and incubated for 20 min at 37 °C. […] Cells were solubilized with 0.6 mL of 1N NaOH overnight and transferred into scintillation vials. ^3H and ^14C contents were measured after the addition of 2.5 mL of scintillator in a liquid scintillation counter.
(§3) The cellular protein amount was determined in parallel for each cell line (vector- and transporter-transfected) from six wells in a different 24-well reference plate using the Bradford method. […]
(§4) The inhibitory effect (I(%)) was calculated according to the formula: [drawing 5] […]

mMate1 = molecular target: T2, mMate1 (Mus musculus, UniProt Q8K0H1); experiment: Two-point inhibition of mMate1-mediated metformin uptake in transfected HEK293 cells; assay type: in vitro ADME; details: 1 and 10 μM; metformin 20 μM, 1 min
T2 construct: expressed in transfected cells; host or cells: HEK293
T2 sequence (Q8K0H1 1-567): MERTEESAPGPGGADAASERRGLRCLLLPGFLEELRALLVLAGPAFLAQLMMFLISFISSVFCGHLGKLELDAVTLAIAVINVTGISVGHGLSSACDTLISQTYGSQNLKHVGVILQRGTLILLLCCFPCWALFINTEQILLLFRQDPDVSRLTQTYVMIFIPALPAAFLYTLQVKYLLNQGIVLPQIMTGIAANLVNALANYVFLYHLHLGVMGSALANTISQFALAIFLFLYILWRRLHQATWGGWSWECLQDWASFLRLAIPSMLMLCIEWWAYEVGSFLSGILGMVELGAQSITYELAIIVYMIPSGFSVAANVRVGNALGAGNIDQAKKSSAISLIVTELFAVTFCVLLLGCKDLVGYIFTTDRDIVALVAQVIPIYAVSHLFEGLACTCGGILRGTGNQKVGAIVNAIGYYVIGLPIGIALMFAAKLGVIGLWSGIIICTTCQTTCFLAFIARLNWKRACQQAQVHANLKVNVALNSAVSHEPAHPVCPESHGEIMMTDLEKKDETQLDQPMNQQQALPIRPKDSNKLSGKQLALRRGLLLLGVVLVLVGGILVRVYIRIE
Protocol: as §1, §2, §3, §4

SMILES: Cc1ccc2c(C)c3c(c(O)c2c1O)C(=O)[C@@]1(O)C(=O)C(C(N)=O)=C(O)[C@@H](N)[C@H]1C3 [CDCHD, amidochelocardin]
- inhibitory effect on mOct1 (in words) (mOct1): slight inverse inhibitory effect
- inhibitory effect on mMate1 (in words) (mMate1): did not have major effects

SMILES: CC(=O)C1=C(O)[C@@H](N)[C@H]2Cc3c(c(O)c4c(O)c(C)ccc4c3C)C(=O)[C@@]2(O)C1=O [CHD, chelocardin]
- inhibitory effect on mOct1 (in words) (mOct1): No inhibitory effect
- inhibitory effect on mMate1 (in words) (mMate1): weak inhibitory effect
